# Legend:
# Assay in all cases: Cytotoxity of acetylgliotoxin by the MTT method
# Format in all cases: cell-based
# [1] = system: colon-26 (mouse carcinoma of the colon ); conditions: colon-26, 72 hours
# Method: (§1) Antitumor activity of acetylgliotoxin against various cancer cells was measured by the MTT method. Various cancer cells were adjusted to 4.0 × 10^4 cells/mL by using a medium (hereinafter referred to as medium A) composed of RPMI 1640 medium (GIBCO) containing 10% fetal calf serum, and each 0.1 mL of the cancer cells was pipetted into each well of a 96 well microtiter plate. The plate was incubated in a carbon dioxide gas incubator at 37 °C for 20 hours, and each 0.025 mL of samples (test compounds) suitably diluted with the medium A was added. Then, incubation was further carried out in the carbon dioxide gas incubator at 37 °C for 72 hours. Each 0.01 mL of the MTT solution adjusted to 5 mg/mL by using Dulbecco's PBS (-) (Nissui) was added thereto, and incubated in the carbon dioxide gas incubator at 37 °C for 3 hours. Subsequently, each 0.05 mL of 0.01 N HCl/20 % SDS was added. Produced crystals were dissolved, and absorbance at 570 nm was measured by a microplate reader. By comparing the absorbance of the cells treated with the sample in the known concentration with that of non-treated cells, the sample concentration which inhibits multiplication of the cells at the rate of 50% (IC50) was calculated. Apoptosis was determined by incubating the plate in the carbon dioxide gas incubator at 37 °C for 20 hours, adding each 0.025 mL of samples (test compounds) suitably diluted with the medium A, incubating in the carbon dioxide gas incubator at 37 °C for 72 hours, according to the above method, adding nucleus-staining fluorescent dye DAPI (4,6 - diaminodino-2-henylindole) to each well so as to become 0.5 ng/mL, and after leaving at room temperature for 10 minutes, confirming agglomeration of chromosomes by using a fluorescence microscope.
# (§2) Human leukemia cells (K 562 : Dainippon Seiyaku), human carcinoma cells of the colon (HCT-15, HCT-116, SW946: Dainippon Seiyaku), human leukemia cells (U 937: Dainippon Seiyaku), human lung cancer cells (LX-1: Biseibutsu Kagaku Kenkyu-sho), mouse leukemia cells (P 388 : Dainippon Seiyaku), mouse carcinoma cells of the colon (colon-26 : Gan Kenkyu-kai, Gan Kenkyu-sho) Table 1
# [2] = system: HCT-15 (human carcinoma of the colon); conditions: HCT-15, 72 hours
# Method: as §1, §2
# [3] = system: SW948 (human carcinoma of the colon); conditions: SW948, 72 hours
# Method: as §1, §2
# [4] = system: LX-1 (human lung cancer ); conditions: LX-1, 72 hours
# Method: as §1, §2
# [5] = system: HCT-116 (human carcinoma of the colon); conditions: HCT-116, 72 hours
# Method: as §1, §2
smiles,measurement,setting,value
CC(=O)OC1C=CC=C2CC34SSC(CO)(C(=O)N3C21)N(C)C4=O (centres unmarked) [acetylgliotoxin],IC50,[1],0.076 µg/mL
same,IC50,[2],0.039 µg/mL
same,IC50,[3],0.19 µg/mL
same,IC50,[4],0.074 µg/mL
same,IC50,[5],0.18 µg/mL

# Reference: patent EP0926242A1, “GLIOTOXIN DERIVATIVES AND ANTICANCER AGENT COMPRISING THE SAME” (priority 1996, dated 1998)
